{"source": "patent US11311522B1", "about": "(Cavion, Inc., priority 2018, dated 2022)", "key": {"[1]": {"assay": "Off-target panel of enzyme and receptor binding sites, ion channels, transporters", "conditions": "10 μM, over 170 targets"}, "[2]": {"system": "T1, CYP1A2, CYP3A4, CYP2C8, CYP2C9, CYP2C19, CYP2D6", "T1 construct": "IC50, CYP1A2, CYP3A4, CYP2C8, CYP2C9, CYP2C19, CYP2D6; other: human liver microsomes", "assay": "CYP inhibition in human liver microsomes", "assay_type": "in vitro ADME", "conditions": "human liver microsomes"}, "[3]": {"system": "CYP1A2, CYP3A4, CYP2C8, CYP2C9, CYP2C19, CYP2D6, CYP2B6", "assay": "CYP inhibition in human liver microsomes", "assay_type": "in vitro ADME"}, "[4]": {"assay": "MR2 capsules fed versus fasted PK", "assay_type": "in vivo", "conditions": "human, plasma, oral, 8 mg, single dose (1×8 mg) of MR2 CX-8998", "from_the_text": "Subjects will be screened for study eligibility within 28 days before administration of the first dose of study drug. Subjects who meet the study eligibility criteria will be admitted to the clinical research unit in the afternoon of the day before administration of the first dose of study drug (Period 1/Day −1)."}, "[5]": {"assay": "Crossover bioavailability study IR vs MR1 vs MR2 capsules: PK", "design": "AUC72hr: unit not given beside the values", "conditions": "for AUC728, Mean / AUC728: single 8 mg dose, fasted; for AUC728, Mean: N=15; for AUC728: individual subjects; for AUC72hr: plasma"}, "in vivo": {"assay": "in vivo", "conditions": "Beagle, dog, in vivo, po"}, "[6]": {"system": "patients with essential tremor", "assay": "T-CALM: TETRAS total score", "assay_type": "in vivo, human", "procedure": "The Total TETRAS score was defined as the sum of the TETRAS performance subscale total score and the TETRAS ADL subscale score. TETRAS TOTAL score combines both patient reported outcome and objective measurement of tremor amplitude in a single score. Analyses of the TETRAS-ADL was conducted using the same type of ANCOVA model as described for the TETRAS-PS, using two-sided tests at the alpha=0.05 level of significance (FIG. 3 and Table 3)."}, "[7]": {"conditions": "doses up to 6000 μg/plate"}, "[8]": {"assay": "In vitro plasma protein binding, human", "assay_type": "in vitro ADME"}, "[9]": {"assay": "Phase 1 single-dose pharmacokinetics (PN001, PN002/Part I, PN003, PN005)", "assay_type": "in vivo, human", "conditions": "for Cmax / AUC(0-t): male, human, plasma, oral; for AUC(0-t): read-out: AUC0-24"}, "[10]": {"system": "patients with schizophrenia", "assay": "PN004: efficacy in acutely psychotic patients with schizophrenia (PANSS)", "conditions": "human, in vivo", "description": "The primary efficacy endpoint was the mean change from baseline in the Positive and Negative Syndrome Scale (PANSS) total score at Week 4; secondary efficacy endpoints included responder rates on the PANSS total score at Week 4 and the change from baseline in the Clinical Global Impressions—Severity of Illness Scale at Week 4. Safety was monitored by adverse events, laboratory evaluations, ECGs, Holter monitoring, vital signs, the Simpson-Angus Scale, the Barnes Akathisia Rating Scale, the Abnormal Involuntary Movement Scale, and the Columbia Suicide-Severity Rating scale (C-SSRS)."}}, "note": "Values joined by “and” are separate entries in the source; they are usually repeats but may differ in a detail not shown here. Equal values may be shown once. Read-outs that look alike come from different tables or passages of the source."}
{"smiles": "CC(C)c1ccc(CC(=O)N[C@H](C)c2ccc(OCC(F)(F)F)cn2)cc1", "note": "[CX-8998]", "values": [{"measurement": "Off-target effects", "setting": "[1]", "result": "No off-target effects"}, {"measurement": "IC50", "setting": "[2]", "result": "> 20", "unit": "µM"}, {"measurement": "Time-dependent inhibition of CYP3A4 or CYP2B6", "setting": "[3]", "result": "insignificant"}, {"measurement": "AUC", "setting": "[4]", "result": 7.57, "unit": "µM·h"}, {"measurement": "AUC728, Mean", "setting": "[5]; IR Formulation", "result": 7435, "unit": "nMh"}, {"measurement": "AUC728", "setting": "[5]; IR Formulation", "result": "9175 nMh and 4786 nMh and 6911 nMh and 7288 nMh and 4596 nMh and 7940 nMh and 13892 nMh and 7217 nMh and 7305 nMh and 9382 nMh and 5463 nMh and 6845 nMh and 5185 nMh and 8628 nMh and 6910 nMh"}, {"measurement": "AUC728, Mean", "setting": "[5]; MR1 Formulation", "result": 7526, "unit": "nMh"}, {"measurement": "AUC728", "setting": "[5]; MR1 Formulation", "result": "9494 nMh and 4762 nMh and 7028 nMh and 7387 nMh and 4102 nMh and 8335 nMh and 13265 nMh and 8177 nMh and 6271 nMh and 9351 nMh and 5184 nMh and 7996 nMh and 5635 nMh and 8950 nMh and 7114 nMh"}, {"measurement": "AUC728, Mean", "setting": "[5]; MR2 Formulation", "result": 7119, "unit": "nMh"}, {"measurement": "AUC728", "setting": "[5]; MR2 Formulation", "result": "11133 nMh and 3862 nMh and 8064 nMh and 6813 nMh and 4833 nMh and 8180 nMh and 10810 nMh and 6034 nMh and 6730 nMh and 10165 nMh and 4975 nMh and 6136 nMh and 3085 nMh and 10051 nMh and 5947 nMh"}, {"measurement": "AUC72hr", "setting": "[5]; following a single 8 mg dose of MR1 CX-8998", "result": 7530}, {"measurement": "AUC72hr", "setting": "[5]; following a single 8 mg dose of MR2 CX-8998", "result": 7125}, {"measurement": "AUC", "setting": "in vivo; female, 300 mg/kg/day", "result": 2080, "unit": "µM·h"}, {"measurement": "Cmax", "setting": "in vivo; female, 300 mg/kg/day", "result": 158000, "unit": "nM"}, {"measurement": "AUC", "setting": "in vivo; male, 3 mg/kg/day", "result": 62.5, "unit": "µM·h"}, {"measurement": "Cmax", "setting": "in vivo; male, 3 mg/kg/day", "result": 8400, "unit": "nM"}, {"measurement": "Cmax", "setting": "in vivo; male, 30 mg/kg/day", "result": 73500, "unit": "nM"}, {"measurement": "Cmax", "setting": "in vivo; male, 300 mg/kg/day", "result": 253000, "unit": "nM"}, {"measurement": "Change from baseline in TETRAS-Total, LS mean", "setting": "[6]; Day 15 (8 mg BID)", "result": "−7.5±1.42 and −7.5"}, {"measurement": "Change from baseline in TETRAS-Total, LS mean", "setting": "[6]; Day 28 (10 mg BID)", "result": "−9.0±1.66 and −9"}, {"measurement": ">5 to 10 point worsening", "setting": "[6]; TETRAS Total, Day 15", "result": "0 n (%)"}, {"measurement": ">10 point worsening", "setting": "[6]; TETRAS Total, Day 15", "result": "0 n (%)"}, {"measurement": "0 change", "setting": "[6]; TETRAS Total, Day 28", "result": "0 n (%)"}, {"measurement": ">5 to 10 point worsening", "setting": "[6]; TETRAS Total, Day 28", "result": "0 n (%)"}, {"measurement": ">10 point worsening", "setting": "[6]; TETRAS Total, Day 28", "result": "0 n (%)"}, {"measurement": "Ames assay result", "setting": "[7]", "result": "negative"}, {"measurement": "fraction unbound", "setting": "[8]; human plasma, read-out: Human-free fraction", "result": 0.004}, {"measurement": "fraction unbound", "setting": "[8]; human plasma, read-out: In vitro plasma protein binding (converted)", "result": "~0.004"}, {"measurement": "fraction unbound", "setting": "[8]; humans, read-out: free fraction", "result": 0.004}, {"measurement": "Cmax", "setting": "[9]; 1 mg, PN001/Part I, males 20-40 y, single 1 mg fed, read-out: Cmax", "result": 56, "unit": "nM"}, {"measurement": "Cmax", "setting": "[9]; 1 mg, PN001/Part I, males 20-40 y, single 1 mg, morning fasted, read-out: Cmax", "result": 104, "unit": "nM"}, {"measurement": "Cmax", "setting": "[9]; 1 mg, fasted, read-out: Cmax, mean", "result": 104, "unit": "nM"}, {"measurement": "Cmax", "setting": "[9]; 1 mg, fed (high-fat meal), read-out: Cmax, mean", "result": 56, "unit": "nM"}, {"measurement": "Cmax", "setting": "[9]; 2 mg, PN002/Part I, males 55-75 y, single 2 mg, morning fasted, read-out: Cmax", "result": 198, "unit": "nM"}, {"measurement": "Cmax", "setting": "[9]; 8 mg, PN002/Part I, males 55-75 y, single 8 mg, morning fasted, read-out: Cmax", "result": 708, "unit": "nM"}, {"measurement": "Cmax", "setting": "[9]; 8 mg, single 8 mg CX-8998, PN002/Part I middle-aged and elderly males, read-out: Cmax", "result": 708, "unit": "nM"}, {"measurement": "AUC(0-t)", "setting": "[9]; 12 mg, PN002 Part 2, 12 mg, 1 dose", "result": 4.99, "unit": "µM·h"}, {"measurement": "Cmax", "setting": "[9]; 12 mg, PN002 Part 2, 12 mg, 1 dose, read-out: Cmax", "result": 798, "unit": "nM"}, {"measurement": "AUC(0-t)", "setting": "[9]; 16 mg, PN001 Part 1, 16 mg, 1 dose", "result": 8.52, "unit": "µM·h"}, {"measurement": "Cmax", "setting": "[9]; 18 mg, PN001/Part II, males 22-39 y, single 18 mg, morning fasted, read-out: Cmax", "result": 1180, "unit": "nM"}, {"measurement": "AUC(0-t)", "setting": "[9]; 18 mg, PN001 Part 2, 18 mg, 1 dose", "result": 9.93, "unit": "µM·h"}, {"measurement": "Cmax", "setting": "[9]; 18 mg, PN001 Part 2, 18 mg, 1 dose, read-out: Cmax", "result": 1180, "unit": "nM"}, {"measurement": "Cmax", "setting": "[9]; 18 mg, PN002/Part I, males 55-75 y, single 18 mg, morning fasted, read-out: Cmax", "result": 1330, "unit": "nM"}, {"measurement": "AUC(0-t)", "setting": "[9]; 18 mg, PN002 Part 1, 18 mg, 1 dose", "result": 9.44, "unit": "µM·h"}, {"measurement": "Cmax", "setting": "[9]; 18 mg, PN002 Part 1, 18 mg, 1 dose, read-out: Cmax", "result": 1330, "unit": "nM"}, {"measurement": "Cmax", "setting": "[9]; 24 mg, PN001/Part I, males 20-40 y, single 24 mg evening, read-out: Cmax", "result": 1370, "unit": "nM"}, {"measurement": "AUC(0-t)", "setting": "[9]; Average of studies, dose 16, 1 dose", "result": 8.22, "unit": "µM·h"}, {"measurement": "Cmax", "setting": "[9]; Average of studies, dose 16, 1 dose, read-out: Cmax", "result": 1060, "unit": "nM"}, {"measurement": "Mean Cmax higher than in younger male subjects", "setting": "[9]; middle-aged and elderly female, 8 mg", "result": 6, "unit": "%"}, {"measurement": "Mean Cmax higher than in younger male subjects", "setting": "[9]; middle-aged and elderly male, 8 mg", "result": 28, "unit": "%"}, {"measurement": "Reduction in Cmax with food", "setting": "[9]; vs fasted state", "result": 45, "unit": "%"}, {"measurement": "PANSS total score change at Week 4 and secondary endpoints vs placebo", "setting": "[10]", "result": "No statistically significant differences"}]}
